Measured values as given in publication PMC6768109, “A novel assay for measuring recombinant human lysophosphatidylcholine acyltransferase 3 activity” (FEBS Open Bio, 2019).

T1: recombinant human lysophosphatidylcholine acyltransferase 3 (rhLPCAT3) (Homo sapiens, UniProt Q6P1A2)
T1 construct: gene LPCAT3; human LPCAT3 (BC065194.1) with HRV 3C site and C-terminal Twin-strep-tag, expressed in Sf9 cells, purified in DDM
T1 sequence (Q6P1A2 2-487): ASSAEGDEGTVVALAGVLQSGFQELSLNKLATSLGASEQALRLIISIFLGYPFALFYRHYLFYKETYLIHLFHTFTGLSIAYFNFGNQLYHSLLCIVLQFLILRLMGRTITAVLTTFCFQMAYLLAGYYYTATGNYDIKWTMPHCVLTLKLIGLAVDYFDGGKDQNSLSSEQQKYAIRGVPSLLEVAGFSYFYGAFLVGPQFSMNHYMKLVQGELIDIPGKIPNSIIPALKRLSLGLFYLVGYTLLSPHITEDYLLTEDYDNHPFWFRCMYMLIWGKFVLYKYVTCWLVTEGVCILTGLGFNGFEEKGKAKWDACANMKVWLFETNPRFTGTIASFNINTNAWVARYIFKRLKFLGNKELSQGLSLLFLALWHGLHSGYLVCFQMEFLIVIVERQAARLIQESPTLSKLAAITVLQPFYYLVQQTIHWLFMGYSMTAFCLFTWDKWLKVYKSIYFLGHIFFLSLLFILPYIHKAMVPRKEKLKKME


Legend:
[1] = target: T1, recombinant human lysophosphatidylcholine acyltransferase 3 (rhLPCAT3); experiment: reversed-phase HPLC fluorescence assay of NBD-PC formation by purified rhLPCAT3; assay type: biochemical
[2] = substrate: CCCCC/C=C\C/C=C\C/C=C\C/C=C\CCCC(=O)SCCNC(=O)CCNC(=O)[C@H](O)C(C)(C)COP(=O)(O)OP(=O)(O)OC[C@H]1O[C@@H](n2cnc3c(N)ncnc32)[C@H](O)[C@@H]1OP(=O)(O)O; experiment: bisubstrate kinetics (Km) of purified enzyme, reversed-phase HPLC with fluorescence detection; assay type: biochemical, Homo sapiens

Molecule	IC50 [1]	Km [2]
CCCOC(=O)c1ccc(N2C(=O)C(Cl)=C(Cl)C2=O)cc1 [TSI-10]	174 ± 1.04 µM	
recombinant human lysophosphatidylcholine acyltransferase 3 (rhLPCAT3) (Homo sapiens) (protein, human LPCAT3 (BC065194.1) with HRV 3C site and C-terminal Twin-strep-tag, expressed in Sf9 cells, purified in DDM) ASSAEGDEGTVVALAGVLQSGFQELSLNKLATSLGASEQALRLIISIFLGYPFALFYRHYLFYKETYLIHLFHTFTGLSIAYFNFGNQLYHSLLCIVLQFLILRLMGRTITAVLTTFCFQMAYLLAGYYYTATGNYDIKWTMPHCVLTLKLIGLAVDYFDGGKDQNSLSSEQQKYAIRGVPSLLEVAGFSYFYGAFLVGPQFSMNHYMKLVQGELIDIPGKIPNSIIPALKRLSLGLFYLVGYTLLSPHITEDYLLTEDYDNHPFWFRCMYMLIWGKFVLYKYVTCWLVTEGVCILTGLGFNGFEEKGKAKWDACANMKVWLFETNPRFTGTIASFNINTNAWVARYIFKRLKFLGNKELSQGLSLLFLALWHGLHSGYLVCFQMEFLIVIVERQAARLIQESPTLSKLAAITVLQPFYYLVQQTIHWLFMGYSMTAFCLFTWDKWLKVYKSIYFLGHIFFLSLLFILPYIHKAMVPRKEKLKKME		11.03 ± 0.51 µM
